Data published in the kinase profiling compilation of Christmann-Franck et al. (2016).

Experiments:
Assay in all cases: KINOMEscan competition binding
Settings in all cases: compound 10.0 µM
MAP3K2 (human) = MAP3K2 (human) (UniProt Q9Y2U5)
TRPM6 (human) = TRPM6 (human) (UniProt Q9BX84)
ICK (human) = ICK (human) (UniProt Q9UPZ9)
CDK4 CCND1 (human) = CDK4 CCND1 (human) (UniProt P11802+P24385)
[1] = system: PIK3CA (human), P42336 [C420R]
MTOR (human) = MTOR (human) (UniProt P42345)
BTK (human) = BTK (human) (UniProt Q06187)
[2] = system: EGFR (human), P00533 [G719S]
DDR1 (human) = DDR1 (human) (UniProt Q08345)
PIK3CG (human) = PIK3CG (human) (UniProt P48736)
TBK1 (human) = TBK1 (human) (UniProt Q9UHD2)
KIT (human) = KIT (human) (UniProt P10721)
CDKL1 (human) = CDKL1 (human) (UniProt Q00532)
EPHB6 (human) = EPHB6 (human) (UniProt O15197)
PKN3 (M.tuberculosis) = PKN3 (M.tuberculosis) (UniProt Q6P5Z2)
ERN1 (human) = ERN1 (human) (UniProt O75460)
NEK3 (human) = NEK3 (human) (UniProt P51956)
[3] = system: FLT3 (human), P36888 [K663Q]
HIPK4 (human) = HIPK4 (human) (UniProt Q8NE63)
NEK4 (human) = NEK4 (human) (UniProt P51957)
PIP4K2C (human) = PIP4K2C (human) (UniProt Q8TBX8)
[4] = system: PIK3CA (human), P42336 [E545A]
BRAF (human) = BRAF (human) (UniProt P15056)
NIM1 (human) = NIM1 (human) (UniProt Q8IY84)
SIK3 (human) = SIK3 (human) (UniProt Q9Y2K2)
CDK13 (human) = CDK13 (human) (UniProt Q14004)
PI4KB (human) = PI4KB (human) (UniProt Q9UBF8)
[5] = system: EGFR (human), P00533 [746-750 del]
[6] = system: ABL1 (human), P00519 [E255K]
DYRK1A (human) = DYRK1A (human) (UniProt Q13627)
PRKCI (human) = PRKCI (human) (UniProt P41743)
CDK4 CCND3 (human) = CDK4 CCND3 (human) (UniProt P11802+P30281)
MAP3K6 (human) = MAP3K6 (human) (UniProt O95382)
MATK (human) = MATK (human) (UniProt P42679)
MAP2K7 (human) = MAP2K7 (human) (UniProt O14733)
MET (human) = MET (human) (UniProt P08581)
LRRK2 (human) = LRRK2 (human) (UniProt Q5S007)
ROCK1 (human) = ROCK1 (human) (UniProt Q13464)
DYRK2 (human) = DYRK2 (human) (UniProt Q92630)

Chain of SIK3 (human) (Q9Y2K2 whole entry, looked up): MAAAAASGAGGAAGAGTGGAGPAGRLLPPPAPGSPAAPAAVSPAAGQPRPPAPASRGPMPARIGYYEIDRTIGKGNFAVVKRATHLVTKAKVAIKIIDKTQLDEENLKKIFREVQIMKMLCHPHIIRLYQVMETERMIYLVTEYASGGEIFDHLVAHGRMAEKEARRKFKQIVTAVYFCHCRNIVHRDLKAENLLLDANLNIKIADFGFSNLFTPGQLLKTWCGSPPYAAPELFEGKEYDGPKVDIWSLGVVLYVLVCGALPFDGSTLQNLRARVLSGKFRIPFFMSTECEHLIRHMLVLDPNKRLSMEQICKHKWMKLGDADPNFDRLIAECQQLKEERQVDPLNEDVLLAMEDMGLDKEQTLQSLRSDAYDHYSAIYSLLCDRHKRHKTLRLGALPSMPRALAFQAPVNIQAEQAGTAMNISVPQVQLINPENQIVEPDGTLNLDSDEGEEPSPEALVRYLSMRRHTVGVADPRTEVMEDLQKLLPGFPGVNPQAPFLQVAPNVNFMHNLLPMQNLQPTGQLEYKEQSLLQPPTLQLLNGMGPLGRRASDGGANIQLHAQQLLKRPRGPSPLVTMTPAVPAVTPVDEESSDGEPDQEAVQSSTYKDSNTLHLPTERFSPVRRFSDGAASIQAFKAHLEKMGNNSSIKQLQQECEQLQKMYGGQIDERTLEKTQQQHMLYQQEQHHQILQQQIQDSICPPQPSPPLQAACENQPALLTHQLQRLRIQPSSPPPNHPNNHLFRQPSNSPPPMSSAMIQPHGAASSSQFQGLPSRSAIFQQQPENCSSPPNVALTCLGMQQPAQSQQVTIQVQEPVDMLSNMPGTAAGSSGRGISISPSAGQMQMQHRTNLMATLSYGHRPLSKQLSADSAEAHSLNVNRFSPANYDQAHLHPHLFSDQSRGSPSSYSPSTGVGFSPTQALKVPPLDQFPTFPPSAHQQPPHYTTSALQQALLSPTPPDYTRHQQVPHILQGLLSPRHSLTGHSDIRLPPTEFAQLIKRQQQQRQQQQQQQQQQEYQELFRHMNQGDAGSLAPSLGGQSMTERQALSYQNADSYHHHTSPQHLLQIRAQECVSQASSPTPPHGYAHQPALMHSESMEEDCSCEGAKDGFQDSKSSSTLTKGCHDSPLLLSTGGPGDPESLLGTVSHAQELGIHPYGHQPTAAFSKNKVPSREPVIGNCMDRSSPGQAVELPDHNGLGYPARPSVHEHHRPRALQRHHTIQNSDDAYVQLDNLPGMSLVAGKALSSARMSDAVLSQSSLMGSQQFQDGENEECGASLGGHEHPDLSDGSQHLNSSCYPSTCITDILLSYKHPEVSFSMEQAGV
Chain of MAP3K2 (human) (Q9Y2U5 whole entry, looked up): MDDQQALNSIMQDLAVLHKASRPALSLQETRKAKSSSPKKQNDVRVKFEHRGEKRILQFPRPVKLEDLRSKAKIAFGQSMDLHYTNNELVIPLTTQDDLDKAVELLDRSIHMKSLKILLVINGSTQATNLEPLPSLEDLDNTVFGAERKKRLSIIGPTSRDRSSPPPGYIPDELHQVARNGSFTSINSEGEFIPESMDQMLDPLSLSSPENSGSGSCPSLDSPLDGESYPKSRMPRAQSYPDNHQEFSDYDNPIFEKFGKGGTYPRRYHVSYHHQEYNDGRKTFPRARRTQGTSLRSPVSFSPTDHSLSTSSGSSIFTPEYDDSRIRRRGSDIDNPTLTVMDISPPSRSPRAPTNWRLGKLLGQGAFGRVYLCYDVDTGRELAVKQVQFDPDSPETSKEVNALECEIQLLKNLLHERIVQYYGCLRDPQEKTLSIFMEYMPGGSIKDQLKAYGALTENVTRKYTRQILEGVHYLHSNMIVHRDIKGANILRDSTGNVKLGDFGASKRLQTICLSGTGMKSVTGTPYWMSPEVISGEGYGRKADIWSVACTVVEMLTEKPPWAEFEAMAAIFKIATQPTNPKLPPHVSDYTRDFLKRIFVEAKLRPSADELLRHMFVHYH
Chain of PRKCI (human) (P41743 whole entry, looked up): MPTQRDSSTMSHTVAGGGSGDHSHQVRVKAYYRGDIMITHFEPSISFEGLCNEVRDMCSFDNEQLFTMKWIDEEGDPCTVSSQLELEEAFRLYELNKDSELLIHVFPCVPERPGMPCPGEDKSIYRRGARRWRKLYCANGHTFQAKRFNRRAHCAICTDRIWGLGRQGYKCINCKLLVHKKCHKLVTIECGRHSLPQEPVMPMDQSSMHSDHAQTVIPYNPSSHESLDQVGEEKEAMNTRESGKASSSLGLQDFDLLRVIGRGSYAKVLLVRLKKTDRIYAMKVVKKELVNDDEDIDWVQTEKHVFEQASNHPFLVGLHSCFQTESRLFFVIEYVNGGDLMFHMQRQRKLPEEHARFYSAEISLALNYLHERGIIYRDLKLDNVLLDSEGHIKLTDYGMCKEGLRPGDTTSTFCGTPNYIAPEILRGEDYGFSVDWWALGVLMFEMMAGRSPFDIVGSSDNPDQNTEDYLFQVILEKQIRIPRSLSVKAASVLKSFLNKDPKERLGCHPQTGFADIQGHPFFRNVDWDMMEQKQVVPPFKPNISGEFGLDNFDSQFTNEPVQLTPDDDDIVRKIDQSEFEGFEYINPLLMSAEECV
Chain of ABL1 (human), P00519 [E255K] (P00519 whole entry E255K, looked up): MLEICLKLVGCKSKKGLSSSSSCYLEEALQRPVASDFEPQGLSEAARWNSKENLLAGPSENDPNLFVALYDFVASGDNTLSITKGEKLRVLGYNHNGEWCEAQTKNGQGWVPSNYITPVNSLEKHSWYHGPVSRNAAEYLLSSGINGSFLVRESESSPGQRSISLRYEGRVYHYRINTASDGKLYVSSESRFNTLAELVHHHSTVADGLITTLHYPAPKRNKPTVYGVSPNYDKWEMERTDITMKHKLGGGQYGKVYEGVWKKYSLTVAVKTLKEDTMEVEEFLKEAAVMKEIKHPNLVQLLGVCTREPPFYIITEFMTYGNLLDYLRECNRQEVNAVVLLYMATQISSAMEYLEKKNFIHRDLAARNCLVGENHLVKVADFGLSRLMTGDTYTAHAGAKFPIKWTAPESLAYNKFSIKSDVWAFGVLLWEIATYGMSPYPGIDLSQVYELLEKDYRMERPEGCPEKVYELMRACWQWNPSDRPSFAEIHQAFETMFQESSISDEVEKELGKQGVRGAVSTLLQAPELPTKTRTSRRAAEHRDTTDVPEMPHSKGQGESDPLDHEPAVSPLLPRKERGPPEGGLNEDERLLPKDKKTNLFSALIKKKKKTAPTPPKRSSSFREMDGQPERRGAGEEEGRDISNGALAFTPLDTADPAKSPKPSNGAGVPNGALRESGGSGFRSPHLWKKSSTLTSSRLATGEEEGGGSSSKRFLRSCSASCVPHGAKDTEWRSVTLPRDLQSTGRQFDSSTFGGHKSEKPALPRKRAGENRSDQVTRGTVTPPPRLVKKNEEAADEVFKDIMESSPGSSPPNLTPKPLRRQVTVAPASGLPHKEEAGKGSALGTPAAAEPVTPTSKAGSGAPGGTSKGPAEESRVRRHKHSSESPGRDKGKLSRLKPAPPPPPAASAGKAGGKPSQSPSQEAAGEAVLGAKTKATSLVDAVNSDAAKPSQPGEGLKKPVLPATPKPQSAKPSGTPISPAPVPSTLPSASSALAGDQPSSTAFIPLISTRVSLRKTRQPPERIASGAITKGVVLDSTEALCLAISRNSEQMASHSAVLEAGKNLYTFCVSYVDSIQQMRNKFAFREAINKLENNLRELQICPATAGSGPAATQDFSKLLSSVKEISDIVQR
Chain of PI4KB (human) (Q9UBF8 whole entry, looked up): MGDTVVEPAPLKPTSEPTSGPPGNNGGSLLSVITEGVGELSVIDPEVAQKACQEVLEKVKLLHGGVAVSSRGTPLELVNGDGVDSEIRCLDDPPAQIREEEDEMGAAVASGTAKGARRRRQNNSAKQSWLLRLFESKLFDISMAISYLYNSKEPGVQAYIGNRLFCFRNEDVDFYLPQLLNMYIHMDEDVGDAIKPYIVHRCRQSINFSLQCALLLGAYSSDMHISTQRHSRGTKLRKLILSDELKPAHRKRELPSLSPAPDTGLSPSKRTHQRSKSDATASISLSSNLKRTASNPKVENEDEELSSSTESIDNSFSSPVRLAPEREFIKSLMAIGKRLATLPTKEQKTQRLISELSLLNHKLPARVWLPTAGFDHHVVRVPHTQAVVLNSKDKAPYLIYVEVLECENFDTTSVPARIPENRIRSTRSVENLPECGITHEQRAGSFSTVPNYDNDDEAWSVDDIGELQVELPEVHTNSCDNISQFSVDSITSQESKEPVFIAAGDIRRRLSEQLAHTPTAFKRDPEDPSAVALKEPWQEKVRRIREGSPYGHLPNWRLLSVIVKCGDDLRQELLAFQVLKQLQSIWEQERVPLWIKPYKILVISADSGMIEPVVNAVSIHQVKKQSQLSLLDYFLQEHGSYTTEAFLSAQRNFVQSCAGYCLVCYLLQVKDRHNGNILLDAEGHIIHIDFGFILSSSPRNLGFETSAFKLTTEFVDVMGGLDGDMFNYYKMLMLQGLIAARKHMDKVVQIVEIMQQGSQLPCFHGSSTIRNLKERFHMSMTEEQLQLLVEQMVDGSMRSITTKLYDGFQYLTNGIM
Chain of PIP4K2C (human) (Q8TBX8 whole entry, looked up): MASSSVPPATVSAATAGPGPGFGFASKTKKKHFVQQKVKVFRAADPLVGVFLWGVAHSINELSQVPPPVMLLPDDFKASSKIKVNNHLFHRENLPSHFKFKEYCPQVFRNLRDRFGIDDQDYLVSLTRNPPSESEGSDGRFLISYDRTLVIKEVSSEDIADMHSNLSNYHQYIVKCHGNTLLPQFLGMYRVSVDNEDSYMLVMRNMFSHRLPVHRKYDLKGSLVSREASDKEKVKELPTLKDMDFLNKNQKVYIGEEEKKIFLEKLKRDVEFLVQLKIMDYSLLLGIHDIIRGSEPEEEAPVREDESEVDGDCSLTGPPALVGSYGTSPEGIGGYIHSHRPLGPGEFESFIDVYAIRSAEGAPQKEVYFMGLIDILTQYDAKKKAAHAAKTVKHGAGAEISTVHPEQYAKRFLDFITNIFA

| SMILES | kinase still bound, per cent of control (MAP3K2 (human)) | kinase still bound, per cent of control (TRPM6 (human)) | kinase still bound, per cent of control (ICK (human)) | kinase still bound, per cent of control (CDK4 CCND1 (human)) | kinase still bound, per cent of control [1] | kinase still bound, per cent of control (MTOR (human)) | kinase still bound, per cent of control (BTK (human)) | kinase still bound, per cent of control (DDR1 (human)) | kinase still bound, per cent of control (PIK3CG (human)) | kinase still bound, per cent of control (TBK1 (human)) | kinase still bound, per cent of control (KIT (human)) | kinase still bound, per cent of control (CDKL1 (human)) | kinase still bound, per cent of control (EPHB6 (human)) | kinase still bound, per cent of control (PKN3 (M.tuberculosis)) | kinase still bound, per cent of control (ERN1 (human)) | kinase still bound, per cent of control (NEK3 (human)) | kinase still bound, per cent of control (HIPK4 (human)) | kinase still bound, per cent of control (NEK4 (human)) | kinase still bound, per cent of control (PIP4K2C (human)) | kinase still bound, per cent of control [4] | other results |
| --- | --- | --- | --- | --- | --- | --- | --- | --- | --- | --- | --- | --- | --- | --- | --- | --- | --- | --- | --- | --- | --- |
| Cc1ccc2nc(NCCN)c3ncc(C)n3c2c1 | 100% | 87% | 100% | 58% | 52% | 87% | 100% | 100% | 100% | 100% | 37% | 74% | 44% | 0% | 88% | 100% | 41% | 100% | 100% | 31% | kinase still bound, per cent of control [2]: 100%; kinase still bound, per cent of control [3]: 92%; kinase still bound, per cent of control (BRAF (human)): 95%; kinase still bound, per cent of control (NIM1 (human)): 100%; kinase still bound, per cent of control (SIK3 (human)): 100%; kinase still bound, per cent of control (CDK13 (human)): 4.7%; kinase still bound, per cent of control (PI4KB (human)): 100%; kinase still bound, per cent of control [5]: 100%; kinase still bound, per cent of control [6]: 87%; kinase still bound, per cent of control (DYRK1A (human)): 39%; kinase still bound, per cent of control (PRKCI (human)): 88%; kinase still bound, per cent of control (CDK4 CCND3 (human)): 75%; kinase still bound, per cent of control (MAP3K6 (human)): 100%; kinase still bound, per cent of control (MATK (human)): 100%; kinase still bound, per cent of control (MAP2K7 (human)): 100%; kinase still bound, per cent of control (MET (human)): 100%; kinase still bound, per cent of control (LRRK2 (human)): 97%; kinase still bound, per cent of control (ROCK1 (human)): 100%; kinase still bound, per cent of control (DYRK2 (human)): 8.8% |
| O=C(NOC[C@H](O)CO)c1ccc(F)c(F)c1Nc1ccc(I)cc1F | 100% | 100% | 84% | 93% | 50% | 100% | 87% | 50% | 88% | 85% | 92% | 78% | 87% | 91% | 97% | 100% | 100% | 78% | 100% | 45% | kinase still bound, per cent of control (BRAF (human)): 98%; kinase still bound, per cent of control (NIM1 (human)): 100%; kinase still bound, per cent of control (SIK3 (human)): 52%; kinase still bound, per cent of control (CDK13 (human)): 84%; kinase still bound, per cent of control (PI4KB (human)): 100%; kinase still bound, per cent of control [6]: 100%; kinase still bound, per cent of control (DYRK1A (human)): 100%; kinase still bound, per cent of control (PRKCI (human)): 70%; kinase still bound, per cent of control (CDK4 CCND3 (human)): 84%; kinase still bound, per cent of control (MAP3K6 (human)): 95%; kinase still bound, per cent of control (MATK (human)): 100%; kinase still bound, per cent of control (MAP2K7 (human)): 100%; kinase still bound, per cent of control (LRRK2 (human)): 86%; kinase still bound, per cent of control (ROCK1 (human)): 100%; kinase still bound, per cent of control (DYRK2 (human)): 95% |
